How the values were obtained:
[1] = molecular target: hmGluR5a receptor (Homo sapiens (Human), UniProt P41594); assay: Calcium Flux Assay; assay type: cell-based; conditions: hmGluR5a/L38-20 cells, glutamate-evoked [Ca2+]i
Method: The activity of compounds was examined against the hmGluR5a receptor stably expressed in mouse fibroblast Ltk− cells (the hmGluR5a/L38-20 cell line). See generally Daggett et al., Neuropharmacology 34:871-886 (1995). Receptor activity was detected by changes in intracellular calcium ([Ca^2+]i) measured using the fluorescent calcium-sensitive dye, fura-2. hmGluR5a/L38-20 cells were plated onto 96-well plates, and loaded with 3 µM fura-2 for 1 h. Unincorporated dye was washed from the cells, and the cell plate was transferred to a custom-built 96-channel fluorimeter (SIBIA-SAIC, La Jolla, Calif.) which is integrated into a fully automated plate handling and liquid delivery system. Cells were excited at 350 and 385 nm with a xenon source combined with optical filters. Emitted light was collected from the sample through a dichroic mirror and a 510 nm interference filter and directed into a cooled CCD camera (Princeton Instruments). Image pairs were captured approximately every 1 s, and ratio images were generated after background subtraction. After a basal reading of 20 s, an EC80 concentration of glutamate ([…]) was added to the well, and the response evaluated for another 60 s. The glutamate-evoked increase in [Ca^2+]i in the presence of the screening compound was compared to the response of glutamate alone (the positive control).

[2] = molecular target: metabotropic glutamate receptor subtype 5 (Rattus norvegicus (Rat), UniProt P31424); assay: [3H]-mGluR5 Antagonist Binding to Rodent Brain Membranes
Chain of metabotropic glutamate receptor subtype 5 (P31424 21-1203): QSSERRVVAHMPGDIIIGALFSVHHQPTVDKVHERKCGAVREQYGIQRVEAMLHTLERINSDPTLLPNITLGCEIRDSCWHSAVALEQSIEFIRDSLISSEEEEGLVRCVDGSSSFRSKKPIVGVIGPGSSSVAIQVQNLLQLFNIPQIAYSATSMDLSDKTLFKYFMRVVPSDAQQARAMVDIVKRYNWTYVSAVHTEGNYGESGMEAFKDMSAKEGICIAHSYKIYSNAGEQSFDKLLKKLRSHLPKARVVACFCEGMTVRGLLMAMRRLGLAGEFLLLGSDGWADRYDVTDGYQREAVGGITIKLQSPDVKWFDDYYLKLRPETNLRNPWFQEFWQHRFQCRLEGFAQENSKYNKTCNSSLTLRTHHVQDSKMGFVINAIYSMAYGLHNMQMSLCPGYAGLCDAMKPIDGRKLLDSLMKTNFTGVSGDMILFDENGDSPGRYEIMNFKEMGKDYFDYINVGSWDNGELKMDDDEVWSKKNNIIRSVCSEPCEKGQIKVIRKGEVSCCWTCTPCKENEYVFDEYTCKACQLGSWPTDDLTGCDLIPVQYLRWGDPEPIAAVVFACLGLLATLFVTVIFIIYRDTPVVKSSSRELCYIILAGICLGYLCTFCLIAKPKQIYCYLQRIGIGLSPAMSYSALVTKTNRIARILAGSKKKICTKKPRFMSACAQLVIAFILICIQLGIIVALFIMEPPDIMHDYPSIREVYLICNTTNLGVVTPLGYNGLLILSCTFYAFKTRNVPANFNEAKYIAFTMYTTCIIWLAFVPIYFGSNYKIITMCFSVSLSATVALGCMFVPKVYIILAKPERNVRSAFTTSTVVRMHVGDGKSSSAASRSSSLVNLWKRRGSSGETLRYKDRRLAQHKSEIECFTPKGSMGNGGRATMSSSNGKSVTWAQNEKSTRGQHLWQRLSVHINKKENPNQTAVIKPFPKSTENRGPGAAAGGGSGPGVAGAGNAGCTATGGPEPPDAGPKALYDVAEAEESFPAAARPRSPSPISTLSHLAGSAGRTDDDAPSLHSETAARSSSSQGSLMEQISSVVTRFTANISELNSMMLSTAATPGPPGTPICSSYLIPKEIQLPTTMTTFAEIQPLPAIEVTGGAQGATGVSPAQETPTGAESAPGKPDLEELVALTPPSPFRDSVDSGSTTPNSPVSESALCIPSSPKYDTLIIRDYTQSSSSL
Method: In accordance with Anderson J J, Rao S P, Rowe B, Giracello D R, Holtz G, Chapman D F, Tehrani L, Bradbury M J, Cosford N D, Varney M A, [^3H]Methoxymethyl-3-[(2-methyl-1,3-thiazol-4-yl)ethynyl]pyridine binding to metabotropic glutamate receptor subtype 5 in rodent brain: in vitro and in vivo characterization. J Pharmacol Exp Ther. 2002 December; 303 (3):1044-51, membranes were prepared (as described in Ransom R W and Stec N L (1988) Cooperative modulation of [^3H]MK-801 binding to the N-methyl-D-aspartate receptor-ion channel complex by L-glutamate, glycine, and polyamines. J Neurochem 51:830-836) using whole rat brain, or mGlu5^+/+ or mGlu5^−/− whole mouse brain.
Binding assays were performed as described in Schaffhauser H, Richards J G, Cartmell J, Chaboz S, Kemp J A, Klingelschmidt A, Messer J, Stadler H, Woltering T and Mutel V (1998) In vitro binding characteristics of a new selective group II metabotropic glutamate receptor radioligand, [^3H]LY354740, in rat brain. Mol Pharmacol 53:228-233) at room temperature with slight modifications. Briefly, membranes were thawed and washed once with assay buffer (50 mM HEPES, 2 mM MgCl2, pH 7.4), followed by centrifugation at 40,000×g for 20 min. The pellet was resuspended in assay buffer and briefly homogenized with a Polytron.
For protein linearity experiments, increasing concentrations of membrane protein were added to 96-well plates in triplicate and binding was initiated by addition of 20 nM [^3H]methoxymethyl-3-[(2-methyl-1,3-thiazol-4-yl)ethynyl]pyridine. The assay was incubated for 2 h and non-specific binding was determined using 10 μM MPEP. The binding was terminated by rapid filtration through glass-fiber filters (Unifilter-96 GF/B plate, Packard) using a 96-well plate Brandel cell harvester. Following addition of scintillant, the radioactivity was determined by liquid scintillation spectrometry. Protein measurements were performed by BioRad-DC Protein assay using bovine serum albumin as the standard.
Saturation binding experiments were performed in triplicate with increasing concentrations of [^3H]methoxymethyl-3-[(2-methyl-1,3-thiazol-4-yl)ethynyl]pyridine (1 pM to 100 nM). The time course of association was measured by the addition of 10 nM [^3H]methoxymethyl-3-[(2-methyl-1,3-thiazol-4-yl)ethynyl]pyridine to the membranes at different time points (0-240 min), followed by filtration. Dissociation was measured by the addition of 100 μM unlabeled methoxymethyl-3-[(2-methyl-1,3-thiazol-4-yl)ethynyl]pyridine at different time points to membranes previously incubated for 3 h with 10 nM [^3H]methoxymethyl-3-[(2-methyl-1,3-thiazol-4-yl)ethynyl]pyridine. For competition experiments, 100 μg membrane protein and 10 nM [^3H]methoxymethyl-3-[(2-methyl-1,3-thiazol-4-yl)ethynyl]pyridine was added to wells containing increasing concentration of the test compound in duplicate (methoxymethyl-3-[(2-methyl-1,3-thiazol-4-yl)ethynyl]pyridine or MPEP). [^3H]-3-Methoxy-5-(pyridin-2-ylethynyl)pyridine may also be used as the radioligand in the procedure described above. (See, Cosford, N. D. P.; Roppe, J.; Tehrani, L.; Seiders, T. J.; Schweiger, E. J. et al. [3H]-Methoxymethyl-MTEP and [3H]-methoxy-PEPy): Potent and selective radioligands for the Metabotropic Glutamate Subtype 5 (mGlu5) Receptor. Bioorg. Med. Chem. Lett. 2003, 13, 351-354.)

Chain of hmGluR5a receptor (P41594 other isoform, or with tags, fused parts or gaps): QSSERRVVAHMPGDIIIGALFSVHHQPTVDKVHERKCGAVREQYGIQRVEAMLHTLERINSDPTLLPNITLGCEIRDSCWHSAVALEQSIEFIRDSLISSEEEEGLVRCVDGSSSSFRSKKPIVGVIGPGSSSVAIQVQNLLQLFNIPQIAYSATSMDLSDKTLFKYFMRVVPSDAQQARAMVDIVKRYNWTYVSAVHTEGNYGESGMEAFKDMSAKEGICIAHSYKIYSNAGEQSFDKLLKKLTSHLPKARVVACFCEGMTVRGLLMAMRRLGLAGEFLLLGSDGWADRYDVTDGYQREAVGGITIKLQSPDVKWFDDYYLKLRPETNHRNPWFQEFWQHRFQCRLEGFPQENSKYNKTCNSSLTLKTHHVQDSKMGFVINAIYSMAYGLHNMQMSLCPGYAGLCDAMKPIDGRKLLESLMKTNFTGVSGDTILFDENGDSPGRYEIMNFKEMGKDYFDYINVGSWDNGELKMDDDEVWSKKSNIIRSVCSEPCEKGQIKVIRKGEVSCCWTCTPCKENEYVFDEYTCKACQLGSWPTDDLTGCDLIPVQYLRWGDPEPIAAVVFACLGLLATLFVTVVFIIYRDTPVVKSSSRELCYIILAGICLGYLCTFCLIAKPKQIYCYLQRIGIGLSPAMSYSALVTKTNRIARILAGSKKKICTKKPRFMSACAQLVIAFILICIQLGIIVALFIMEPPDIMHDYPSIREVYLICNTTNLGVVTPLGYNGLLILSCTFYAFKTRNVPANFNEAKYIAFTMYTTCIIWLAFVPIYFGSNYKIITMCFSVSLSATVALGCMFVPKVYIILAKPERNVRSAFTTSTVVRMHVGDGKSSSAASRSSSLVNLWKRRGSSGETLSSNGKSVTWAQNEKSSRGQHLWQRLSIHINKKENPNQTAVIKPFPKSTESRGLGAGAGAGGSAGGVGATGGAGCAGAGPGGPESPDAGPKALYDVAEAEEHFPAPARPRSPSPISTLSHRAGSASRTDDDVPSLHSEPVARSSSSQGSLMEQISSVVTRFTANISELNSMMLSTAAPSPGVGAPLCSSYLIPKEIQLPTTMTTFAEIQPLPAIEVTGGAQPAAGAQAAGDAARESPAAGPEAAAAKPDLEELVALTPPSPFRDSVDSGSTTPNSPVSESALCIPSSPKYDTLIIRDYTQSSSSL

Row | IC50 [1] [nM] | Ki [2] [nM] | SMILES
1 | 1.2 | 0.9 | Cc1nc(C#Cc2cnc(NC(C)(C)C)nc2)cs1 [Example 22, N-(tert-butyl)-5-[(2-methyl-1,3-thiazol-4-yl)ethynyl]pyrimidin-2-amine]
2 | 3 | 13 | Cc1nc(C#Cc2ccc(-c3cccc(C(F)(F)F)c3)nc2)cs1 [Example 77]
3 | 3.5 | 3 | Cc1nc(C#Cc2cncc(C3CC3)c2)cs1 [Example 76]
4 | 13 | 4 | Cc1nc(C#Cc2ccc(-n3ccc4ccccc43)nc2)cs1 [Example 39]
5 | 12 | 7 | Cc1nc(C#Cc2cnc(N3CCCC(CO)C3)nc2)cs1 (centres unmarked) [Example 92]
6 | 17 | 5 | Cc1nc(C#Cc2ccc(-c3cccc4ncccc34)nc2)cs1 [Example 35]
7 | 11 | 19 | COc1ccc(C)cc1-c1ccc(C#Cc2csc(C)n2)cn1 [Example 47]
8 | 2.9 | 12.2 | Cc1nc(C#Cc2ccc(C(C)(C)C)nc2)cs1 [Example 31, 2-tert-butyl-5-[(2-methyl-1,3-thiazol-4-yl)ethynyl]pyridine]
9 | 8 | 9 | Cc1nc(C#Cc2cnc(O[C@@H](C)c3ccccc3)nc2)cs1 [Example 95]
10 | 2 | 7 | Cc1nc(C#Cc2cncc(-c3ccccc3CO)c2)cs1 [Example 84]
11 | 2 | 12 | CCC(C)Sc1ccc(C#Cc2csc(C)n2)cn1 (centres unmarked) [Example 83]
12 | 2.3 | 23 | Cc1nc(C#Cc2cnc(N3CCSCC3)nc2)cs1 [Example 100]
13 | 6 | 4 | Cc1nc(C#Cc2ccc(-c3cccc(C)c3C)nc2)cs1 [Example 63]
14 | 11 | 2 | Cc1nc(C#Cc2ccc(-c3ccc(F)cc3)nc2)cs1 [Example 46]
15 | 6 | 11 | CC[C@H](C)Nc1ccc(C#Cc2csc(C)n2)cn1 [Example 62]
16 | 1.7 | 0.9 | Cc1nc(C#Cc2ccc(SC(C)(C)C)nc2)cs1 [Example 28, 2-(tert-butylthio)-5-[(2-methyl-1,3-thiazol-4-yl)ethynyl]pyridine]
17 | 11 | 7 | Cc1nc(C#Cc2ccc(-c3ccc(F)c(F)c3)nc2)cs1 [Example 45]
18 | 6 | 12 | Cc1nc(C#Cc2ccc(N3CCCC(F)C3)nc2)cs1 (centres unmarked) [Example 61]
19 | 2 | 7 | CCCN(C)c1ccc(C#Cc2csc(C)n2)cn1 [Example 86]
20 | 1.6 | 2 | CCOc1ccccc1-c1ccc(C#Cc2csc(C)n2)cn1 [Example 89]
21 | 2 | 24 | Cc1nc(C#Cc2cnc(OC3CCN(C(=O)OC(C)(C)C)CC3)nc2)cs1 [Example 101]
22 | 0.3 | 2.6 | Cc1nc(C#Cc2cnc(N3CCCCC3)nc2)cs1 [Example 24, 5-[(2-methyl-1,3-thiazol-4-yl)ethynyl]-2-piperidin-1-ylpyrimidine]
23 | 7 | 7.5 | Cc1nc(C#Cc2ccc(N3CCCCCC3)nc2)cs1 [Example 57]
24 | 0.4 | 3.8 | Cc1nc(C#Cc2ccc(-n3ccc4cccnc43)nc2)cs1 [Example 17, 1-{5-[(2-methyl-1,3-thiazol-4-yl)ethynyl]pyridin-2-yl}-1H-pyrrolo[2,3-b]pyridine]

Row | IC50 [1] [nM] | Ki [2] [nM] | SMILES
25 | 11 | 3 | Cc1nc(C#Cc2cnc(N3CCCCCC3)nc2)cs1 [Example 93]
26 | 0.8 | 7.5 | CSc1ccccc1-c1ncc(C#Cc2csc(C)n2)cn1 [Example 14, 5-[(2-methyl-1,3-thiazol-4-yl)ethynyl]-2-[2-(methylthio)phenyl]pyrimidine]
27 | 4 | 7.5 | Cc1nc(C#Cc2ccc(N3CC4CCC3C4)nc2)cs1 (centres unmarked) [Example 74]
28 | 11 | 2 | Cc1nc(C#Cc2ccc(-c3ccccc3CO)nc2)cs1 [Example 44]
29 | 12 | 9 | Cc1nc(C#Cc2ccc(N3CCSCC3)nc2)cs1 [Example 40]
30 | 1 | 1 | Cc1nc(C#Cc2cnc(NC(C)(C)C)nc2)cs1 [Example 105]
31 | 3 | 3 | Cc1cncc(C#Cc2csc(C)n2)c1 [Example 80]
32 | 18 | 15 | Cc1cc(C#N)cc(-c2ccc(C#Cc3csc(C)n3)cn2)c1 [Example 34]
33 | 5 | 4.5 | COCc1ccccc1-c1ccc(C#Cc2csc(C)n2)cn1 [Example 71]
34 | 1.8 | 2.8 | Cc1nc(C#Cc2ccc(N3CCCCC3)nc2)cs1 [Example 19, 5-[(2-methyl-1,3-thiazol-4-yl)ethynyl]-2-piperidin-1-ylpyridine]
35 | 4 | 2 | Cc1nc(C#Cc2ccc(C3CC4CCC3C4)nc2)cs1 (centres unmarked) [Example 73]
36 | 6 | 1.5 | Cc1nc(C#Cc2ccc(-c3cccc(Cl)c3C)nc2)cs1 [Example 60]
37 | 1.1 | 0.7 | Cc1nc(C#Cc2ccc(-c3ccccc3Cl)nc2)cs1 [Example 7, 2-(2-chlorophenyl)-5-[(2-methyl-1,3-thiazol-4-yl)ethynyl]pyridine]
38 | 5 | 13 | Cc1nc(C#Cc2cnc(N3CCCC3)nc2)cs1 [Example 97]
39 | 7 | 4 | CCc1ccccc1-c1ccc(C#Cc2csc(C)n2)cn1 [Example 55]
40 | 3 | 1.4 | C=Cc1cncc(C#Cc2csc(C)n2)c1 [Example 78]
41 | 1.5 | 6 | Cc1nc(C#Cc2cnc(N3CC=CC3)nc2)cs1 [Example 104]
42 | 2 | 4 | Cc1nc(C#Cc2ccc(N3CCC(F)CC3)nc2)cs1 [Example 88]
43 | 2 | 26 | Cc1nc(C#Cc2cnc(NC3CCCC3)nc2)cs1 [Example 102]
44 | 6 | 0.8 | CSc1ccccc1-c1ccc(C#Cc2csc(C)n2)cn1 [Example 64]
45 | 5 | 7 | Cc1nc(C#Cc2cncc(CCc3ccccc3)c2)cs1 [Example 67]
46 | 2.2 | 2.3 | Cc1nc(C#Cc2ccc(C3CCCCC3)nc2)cs1 [Example 30, 2-cyclohexyl-5-[(2-methyl-1,3-thiazol-4-yl)ethynyl]pyridine]
47 | 1.4 | 9 | Cc1nc(C#Cc2cnc(OC(C)C)nc2)cs1 [Example 25, 2-isopropoxy-5-[(2-methyl-1,3-thiazol-4-yl)ethynyl]pyrimidine]
48 | 5 | 7 | CC[C@@H](C)Nc1ccc(C#Cc2csc(C)n2)cn1 [Example 68]

Row | SMILES | IC50 [1] [nM] | Ki [2] [nM]
49 | Cc1nc(C#Cc2ccc(OC(C)(C)C)nc2)cs1 [Example 27, 2-tert-butoxy-5-[(2-methyl-1,3-thiazol-4-yl)ethynyl]pyridine] | 1.4 | 1

From patent US8609852B2, “Thiazolyl mGluR5 antagonists and methods for their use” (Merck Sharp & Dohme Corp., priority 2004, dated 2013)
